Reference: patent publication US6495591B1, “Fungal efflux pump inhibitors” (Essential Therapeutics, Inc., priority 1997, dated 2002)
≈ marks a conversion by molar mass, not a printed value. Like-named read-outs stand apart in the source and are kept apart here.

Key:
[1] = target: pCDRI (ABC) efflux pump in S. cerevisiae YEM-1 (Candida albicans, UniProt P43071); assay: cell-based; format: cell-based, C. albicans
[2] = target: pCDR2 (ABC) efflux pump in S. cerevisiae YEM-37 (Candida albicans, UniProt P78595); assay: cell-based; format: cell-based, C. albicans
Sequence of pCDR2 (ABC) efflux pump in S. cerevisiae YEM-37 (P78595 whole entry): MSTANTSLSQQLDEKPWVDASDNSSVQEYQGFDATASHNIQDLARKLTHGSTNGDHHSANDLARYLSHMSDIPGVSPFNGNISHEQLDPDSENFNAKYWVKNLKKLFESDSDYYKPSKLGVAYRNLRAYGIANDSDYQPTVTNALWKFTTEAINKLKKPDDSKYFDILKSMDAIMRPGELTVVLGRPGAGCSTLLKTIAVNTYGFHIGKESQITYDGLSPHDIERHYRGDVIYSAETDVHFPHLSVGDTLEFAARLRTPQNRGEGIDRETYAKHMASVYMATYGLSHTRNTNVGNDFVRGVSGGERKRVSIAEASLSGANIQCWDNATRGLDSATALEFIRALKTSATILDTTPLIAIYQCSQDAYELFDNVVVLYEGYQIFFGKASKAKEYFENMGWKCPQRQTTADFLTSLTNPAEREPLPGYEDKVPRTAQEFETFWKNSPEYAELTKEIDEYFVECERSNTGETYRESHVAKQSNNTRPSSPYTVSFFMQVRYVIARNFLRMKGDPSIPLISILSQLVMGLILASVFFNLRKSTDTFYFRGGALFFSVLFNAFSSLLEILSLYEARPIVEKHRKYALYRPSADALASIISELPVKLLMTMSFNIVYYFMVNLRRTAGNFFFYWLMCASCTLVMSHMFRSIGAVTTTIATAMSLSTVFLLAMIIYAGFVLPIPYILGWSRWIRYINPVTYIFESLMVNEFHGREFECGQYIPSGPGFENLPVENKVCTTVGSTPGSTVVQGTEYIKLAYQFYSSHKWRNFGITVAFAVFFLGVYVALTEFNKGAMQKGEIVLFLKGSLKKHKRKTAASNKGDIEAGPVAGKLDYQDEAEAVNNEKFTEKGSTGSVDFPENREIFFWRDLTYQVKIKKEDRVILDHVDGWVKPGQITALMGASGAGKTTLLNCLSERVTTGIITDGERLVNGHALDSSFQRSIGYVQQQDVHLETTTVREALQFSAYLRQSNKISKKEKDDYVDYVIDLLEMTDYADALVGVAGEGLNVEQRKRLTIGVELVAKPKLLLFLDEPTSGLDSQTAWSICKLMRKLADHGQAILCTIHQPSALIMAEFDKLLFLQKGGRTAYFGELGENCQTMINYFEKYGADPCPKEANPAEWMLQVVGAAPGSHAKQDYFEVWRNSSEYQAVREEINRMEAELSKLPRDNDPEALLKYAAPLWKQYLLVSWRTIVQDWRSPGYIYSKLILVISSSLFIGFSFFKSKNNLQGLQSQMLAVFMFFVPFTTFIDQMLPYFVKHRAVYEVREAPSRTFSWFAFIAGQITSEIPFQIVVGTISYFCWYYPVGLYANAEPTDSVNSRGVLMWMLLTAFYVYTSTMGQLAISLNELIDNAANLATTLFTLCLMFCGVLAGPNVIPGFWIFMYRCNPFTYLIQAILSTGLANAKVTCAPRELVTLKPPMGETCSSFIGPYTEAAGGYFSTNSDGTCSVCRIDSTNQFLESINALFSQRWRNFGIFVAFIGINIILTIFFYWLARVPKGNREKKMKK

[3] = target: pCgCDR (ABC) efflux pump in S. cerevisiae YEM-39 (Candida glabrata, UniProt Q6FK23); assay: cell-based; format: cell-based, C. glabrata
Sequence of pCgCDR (ABC) efflux pump in S. cerevisiae YEM-39 (Q6FK23 whole entry): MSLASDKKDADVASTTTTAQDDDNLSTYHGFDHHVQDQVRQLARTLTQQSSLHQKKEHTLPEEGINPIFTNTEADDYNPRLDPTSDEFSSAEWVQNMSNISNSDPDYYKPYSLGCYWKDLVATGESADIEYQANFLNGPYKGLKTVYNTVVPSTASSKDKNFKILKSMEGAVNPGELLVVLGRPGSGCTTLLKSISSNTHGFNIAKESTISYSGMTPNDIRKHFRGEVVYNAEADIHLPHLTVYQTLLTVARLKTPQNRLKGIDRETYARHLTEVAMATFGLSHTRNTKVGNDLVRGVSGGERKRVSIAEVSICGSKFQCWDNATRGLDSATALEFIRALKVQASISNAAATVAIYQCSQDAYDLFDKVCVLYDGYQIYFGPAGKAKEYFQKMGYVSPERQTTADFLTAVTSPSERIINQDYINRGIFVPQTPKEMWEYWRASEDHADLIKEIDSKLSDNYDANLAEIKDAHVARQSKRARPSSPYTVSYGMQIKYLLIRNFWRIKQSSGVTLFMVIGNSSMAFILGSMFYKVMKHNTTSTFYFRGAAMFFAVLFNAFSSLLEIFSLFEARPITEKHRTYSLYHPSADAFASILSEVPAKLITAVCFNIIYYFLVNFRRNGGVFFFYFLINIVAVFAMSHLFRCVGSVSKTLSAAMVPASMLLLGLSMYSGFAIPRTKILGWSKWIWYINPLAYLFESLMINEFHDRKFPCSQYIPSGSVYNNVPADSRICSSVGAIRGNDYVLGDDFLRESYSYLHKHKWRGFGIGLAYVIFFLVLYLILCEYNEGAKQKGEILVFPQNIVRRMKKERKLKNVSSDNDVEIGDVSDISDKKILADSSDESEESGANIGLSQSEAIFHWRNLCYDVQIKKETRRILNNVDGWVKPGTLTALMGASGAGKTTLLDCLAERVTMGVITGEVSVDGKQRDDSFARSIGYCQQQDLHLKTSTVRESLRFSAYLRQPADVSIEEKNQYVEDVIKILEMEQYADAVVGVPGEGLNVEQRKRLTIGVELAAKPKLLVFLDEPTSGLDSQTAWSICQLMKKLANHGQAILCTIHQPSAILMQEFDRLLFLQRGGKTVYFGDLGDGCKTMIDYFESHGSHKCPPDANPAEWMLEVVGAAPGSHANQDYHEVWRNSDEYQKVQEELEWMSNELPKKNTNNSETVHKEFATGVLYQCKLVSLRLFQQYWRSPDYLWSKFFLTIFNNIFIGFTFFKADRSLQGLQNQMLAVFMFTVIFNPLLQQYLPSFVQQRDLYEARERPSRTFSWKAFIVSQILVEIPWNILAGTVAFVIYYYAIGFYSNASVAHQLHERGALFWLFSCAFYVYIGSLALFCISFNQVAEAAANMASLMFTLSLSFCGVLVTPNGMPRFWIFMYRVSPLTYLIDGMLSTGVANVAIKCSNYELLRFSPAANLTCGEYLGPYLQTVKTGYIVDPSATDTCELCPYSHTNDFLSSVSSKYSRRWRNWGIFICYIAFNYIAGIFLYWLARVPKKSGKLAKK

[4] = target: pBEN (MF) efflux pump in S. cerevisiae YEM-2 (Candida albicans, UniProt P28873); assay: cell-based; format: cell-based, C. albicans
Sequence of pBEN (MF) efflux pump in S. cerevisiae YEM-2 (P28873 whole entry): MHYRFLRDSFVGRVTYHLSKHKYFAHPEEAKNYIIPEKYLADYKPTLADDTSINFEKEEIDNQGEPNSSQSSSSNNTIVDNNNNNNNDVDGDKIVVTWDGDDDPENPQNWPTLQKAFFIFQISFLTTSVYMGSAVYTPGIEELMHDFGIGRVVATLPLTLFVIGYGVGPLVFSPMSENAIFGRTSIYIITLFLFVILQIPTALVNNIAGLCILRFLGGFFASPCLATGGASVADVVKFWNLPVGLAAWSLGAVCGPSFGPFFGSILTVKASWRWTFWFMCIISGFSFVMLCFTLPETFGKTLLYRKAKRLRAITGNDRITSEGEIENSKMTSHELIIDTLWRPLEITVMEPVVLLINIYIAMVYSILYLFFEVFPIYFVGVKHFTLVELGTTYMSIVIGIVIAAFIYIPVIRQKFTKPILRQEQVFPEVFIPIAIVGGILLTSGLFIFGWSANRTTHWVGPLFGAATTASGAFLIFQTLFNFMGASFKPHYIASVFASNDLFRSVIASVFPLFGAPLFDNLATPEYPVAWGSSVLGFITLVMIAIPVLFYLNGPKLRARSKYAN

[5] = target: pFLU (MF) efflux pump in S. cerevisiae YEM-38 (Candida albicans, UniProt G1UB37); assay: cell-based; format: cell-based, C. albicans; details: YEM-38 pFLU; fluconazole fixed at FLUhalf 2
[6] = test system: pCgBEN (MF) efflux pump in S. cerevisiae YEM-40; format: cell-based, C. glabrata
[7] = test system: YEM 13 C. albicans BEN up; assay: microbe, parasite or virus in culture; format: cell-based; details: YEM 13, 24 hrs, 80% inhibition; for MIC of compound in the presence of fluconazole (+): 1/8 × MIC of fluconazole
[8] = test system: YEM 15 C. albicans, CDR1CDR2 up; assay: microbe, parasite or virus in culture; format: cell-based; details: YEM 15, 24 hrs, 80% inhibition; for MIC of compound in the presence of fluconazole (+): 1/8 × MIC of fluconazole
YEM 53 C. krusei = assay: FEPI MIC with/without 1/8 fluconazole MIC at 24 hrs (Table 11); format: cell-based
[9] = test system: YEM 17 C. glabrata, CgCDR up; format: cell-based; details: 24 hrs, 80% inhibition; for MIC of compound in the presence of fluconazole (+): 1/8 × MIC of fluconazole
YEM 51 C. glabrata wt = assay: FEPI MIC with/without 1/8 fluconazole MIC at 24 hrs (Table 11); format: cell-based
YEM 30 C. albicans wt = assay: as above; format: cell-based
[10] = test system: YEM 24 C. albicans ΔCDR1, ΔCDR2; assay: microbe, parasite or virus in culture; format: cell-based; details: YEM 24, 24 hrs, 80% inhibition; for MIC of compound in the presence of fluconazole (+): 1/8 × MIC of fluconazole
[11] = test system: YEM 27 C. albicans ΔCDR1ΔCDR2 ΔBENΔFLU1; assay: microbe, parasite or virus in culture; format: cell-based; details: YEM 27, 24 hrs, 80% inhibition; for MIC of compound in the presence of fluconazole (+): 1/8 × MIC of fluconazole
Aspergillus fumigatus = assay: FEPI MICs in combination with 1/4 the azole's MIC (Table 12); format: cell-based; set-up: FEPI MIC (alone): unit not given here; details: for FEPI MIC with itraconazole, 60% Inh / FEPI MIC with itraconazole, 80% Inh: itraconazole 0.063 μg/ml (1/4 MIC); for FEPI MIC with ketoconazole, 60% Inh / FEPI MIC with ketoconazole, 80% Inh: ketoconazole 4 μg/ml (1/4 MIC); for FEPI MIC (alone): no azole, 35° C., CM Broth
Method: The combinations were tested against a series of Candida strain with known expression of efflux pumps or with complete deletion of all known pumps and Aspergillus fumigatus. Results are reported as minimum inhibitory concentration (MIC) of […] in the presence or absence of […]. A total of 27 distinct milbemycins were studied.

[12] = test system: C. albicans YEM-15 (CDR1 & CDR2 overexpressor); assay: microbe, parasite or virus in culture; format: cell-based; details: Candida albicans
[13] = test system: C. glabrata YEM-17 (CgCDR overexpressor); assay: microbe, parasite or virus in culture; format: cell-based; details: Nakaseomyces glabratus
C. krusei YEM-71 = assay: Broth dilution checkerboard, azoles and terbinafine with milbemycin α9 (Table 8); format: cell-based; details: Pichia kudriavzevii, YEM71, YEM-71, alone
[14] = YEM 53, 1/8 × MIC of fluconazole, 24 hrs, 80% inhibition
[15] = YEM 51, 1/8 × MIC of fluconazole, 24 hrs, 80% inhibition
[16] = YEM 30, 1/8 × MIC of fluconazole, 24 hrs, 80% inhibition
[17] = fluconazole 32 μg/ml (1/4 MIC), 60% inhibition
[18] = fluconazole 32 μg/ml (1/4 MIC), 80% inhibition

Sequence of pCDRI (ABC) efflux pump in S. cerevisiae YEM-1 (P43071 whole entry): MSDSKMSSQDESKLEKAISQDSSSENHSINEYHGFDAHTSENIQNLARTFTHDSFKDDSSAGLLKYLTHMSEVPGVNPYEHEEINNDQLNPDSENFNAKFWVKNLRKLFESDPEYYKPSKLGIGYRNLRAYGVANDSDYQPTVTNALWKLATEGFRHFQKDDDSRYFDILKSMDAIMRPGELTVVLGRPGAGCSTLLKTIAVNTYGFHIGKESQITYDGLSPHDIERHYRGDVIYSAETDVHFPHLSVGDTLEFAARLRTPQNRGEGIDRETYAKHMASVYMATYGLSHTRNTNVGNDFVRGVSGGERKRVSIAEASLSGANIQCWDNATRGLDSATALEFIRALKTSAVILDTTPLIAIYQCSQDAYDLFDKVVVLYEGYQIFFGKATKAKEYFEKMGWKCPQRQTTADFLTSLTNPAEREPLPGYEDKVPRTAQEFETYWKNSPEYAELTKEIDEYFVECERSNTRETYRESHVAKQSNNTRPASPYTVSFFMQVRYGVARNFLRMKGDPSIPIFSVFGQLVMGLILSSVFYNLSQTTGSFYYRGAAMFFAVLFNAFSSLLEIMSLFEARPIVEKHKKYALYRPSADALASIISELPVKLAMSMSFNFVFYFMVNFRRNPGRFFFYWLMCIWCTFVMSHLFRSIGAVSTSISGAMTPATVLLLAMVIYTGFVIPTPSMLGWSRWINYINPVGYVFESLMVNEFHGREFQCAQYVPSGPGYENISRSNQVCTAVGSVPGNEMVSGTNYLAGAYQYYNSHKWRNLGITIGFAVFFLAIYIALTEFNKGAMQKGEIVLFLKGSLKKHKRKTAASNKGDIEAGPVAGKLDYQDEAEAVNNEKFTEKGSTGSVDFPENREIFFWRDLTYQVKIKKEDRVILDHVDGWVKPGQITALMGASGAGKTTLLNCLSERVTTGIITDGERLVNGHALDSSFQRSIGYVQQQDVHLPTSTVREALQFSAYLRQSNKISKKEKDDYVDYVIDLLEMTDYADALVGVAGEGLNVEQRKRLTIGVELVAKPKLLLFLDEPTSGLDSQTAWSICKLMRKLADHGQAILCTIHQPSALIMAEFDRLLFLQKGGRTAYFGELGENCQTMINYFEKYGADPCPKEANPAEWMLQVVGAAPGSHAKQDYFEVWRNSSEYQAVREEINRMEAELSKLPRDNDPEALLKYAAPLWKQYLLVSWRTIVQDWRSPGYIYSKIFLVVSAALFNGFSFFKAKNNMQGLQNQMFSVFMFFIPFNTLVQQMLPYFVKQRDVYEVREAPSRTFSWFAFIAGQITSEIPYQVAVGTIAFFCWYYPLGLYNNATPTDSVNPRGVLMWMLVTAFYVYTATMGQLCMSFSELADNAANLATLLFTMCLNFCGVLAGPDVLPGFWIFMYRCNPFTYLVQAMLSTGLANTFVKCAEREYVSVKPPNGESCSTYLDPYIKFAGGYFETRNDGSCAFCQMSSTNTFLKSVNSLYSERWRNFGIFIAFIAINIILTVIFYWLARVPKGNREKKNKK

Row | Molecule | MIC of compound in the presence of fluconazole (+) [7] | MIC of compound in the absence of fluconazole (−) [7] | MIC of compound in the presence of fluconazole (+) [8] | MIC of compound in the absence of fluconazole (−) [8] | MIC of compound in the presence of fluconazole (+) (YEM 53 C. krusei; [14]) | MIC of compound in the absence of fluconazole (−) (YEM 53 C. krusei; YEM 53, 24 hrs, 80% inhibition) | MIC of compound in the presence of fluconazole (+) [9] | MIC of compound in the absence of fluconazole (−) [9] | MIC of compound in the presence of fluconazole (+) (YEM 51 C. glabrata wt; [15]) | MIC of compound in the absence of fluconazole (−) (YEM 51 C. glabrata wt; YEM 51, 24 hrs, 80% inhibition) | MIC of compound in the absence of fluconazole (−) (YEM 30 C. albicans wt; YEM 30, 24 hrs, 80% inhibition) | MIC of compound in the presence of fluconazole (+) [10] | MIC of compound in the absence of fluconazole (−) [10] | MIC of compound in the presence of fluconazole (+) [11] | MIC of compound in the absence of fluconazole (−) [11] | FEPI MIC with itraconazole, 60% Inh (Aspergillus fumigatus; 60% inhibition) | FEPI MIC with itraconazole, 80% Inh (Aspergillus fumigatus; 80% inhibition) | FEPI MIC with ketoconazole, 60% Inh (Aspergillus fumigatus; 60% inhibition) | FEPI MIC with ketoconazole, 80% Inh (Aspergillus fumigatus; 80% inhibition) | FEPI MIC (alone) (Aspergillus fumigatus; 80% inhibition) | other results
1 | CCCCC(C)C(=O)OC1C(C)C(C)OC2(CC3CC(C/C=C(\C)CC(C)/C=C/C=C4\COC5C(O)C(C)=CC(C(=O)O3)C45O)O2)C1O (stereo not drawn) [Compound 8, Milbemycin α5] | > 64 µg/mL | > 64 µg/mL | 0.125 µg/mL | > 64 µg/mL | 32 µg/mL | > 64 µg/mL | 2 µg/mL | > 64 µg/mL | 8 µg/mL | > 64 µg/mL | > 64 µg/mL | > 64 µg/mL | > 64 µg/mL | > 64 µg/mL | > 64 µg/mL | 1 | 8 | ≦0.063 | ≦0.063 | >64 | FEPIhalf (concentration needed to reduce activity of efflux pump by 50%) ([1]; YEM-1 pCDRI, fluconazole fixed at FLUhalf 5.6): 0.5; FEPIhalf (concentration needed to reduce activity of efflux pump by 50%) ([2]; YEM-37 pCDR2, fluconazole fixed at FLUhalf 1): 2; FEPIhalf (concentration needed to reduce activity of efflux pump by 50%) ([3]; YEM-39 pCgCDR, fluconazole fixed at FLUhalf 4): 8; FEPIhalf (concentration needed to reduce activity of efflux pump by 50%) ([4]; YEM-2 pBEN, fluconazole fixed at FLUhalf 5.6): 16; FEPIhalf (concentration needed to reduce activity of efflux pump by 50%) [5]: >64; FEPIhalf (concentration needed to reduce activity of efflux pump by 50%) [6]: >64; MIC of compound in the presence of fluconazole (+) (YEM 30 C. albicans wt; [16]): ≦0.03; FEPI MIC with fluconazole, 60% Inh (Aspergillus fumigatus; [17]): 1; FEPI MIC with fluconazole, 80% Inh (Aspergillus fumigatus; [18]): >64
2 | CC1=C[C@H]2C(=O)O[C@H]3C[C@@H](C/C=C(\C)C[C@@H](C)/C=C/C=C4\CO[C@H]([C@@H]1O)[C@@]42O)O[C@@]1(CC[C@H](C)[C@@H](C)O1)C3 [Compound 3, Milbemycin α1] | 32 µg/mL | > 64 µg/mL | ≦0.03 | > 64 µg/mL | – | > 64 µg/mL | 4 µg/mL | > 64 µg/mL | – | > 64 µg/mL | > 64 µg/mL | > 64 µg/mL | > 64 µg/mL | 8 µg/mL | 8 µg/mL | 8 | 16 | ≦0.063 | ≦0.063 | >64 | IC50 [1]: < 0.113 µM; IC50 [2]: 0.473 µM; IC50 [3]: 15.1 µM; IC50 [4]: 30.3 µM; FEPIhalf (concentration needed to reduce activity of efflux pump by 50%) ([6]; YEM-40 pCgBEN, fluconazole fixed at FLUhalf 2.8): 32; MIC of compound in the presence of fluconazole (+) (YEM 53 C. krusei): 0.06 µg/mL; MIC of compound in the presence of fluconazole (+) (YEM 51 C. glabrata wt): 16 µg/mL; MIC of compound in the presence of fluconazole (+) (YEM 30 C. albicans wt): ≦0.03; FEPI MIC with fluconazole, 60% Inh (Aspergillus fumigatus): 2; FEPI MIC with fluconazole, 80% Inh (Aspergillus fumigatus): >64
3 | CC(=O)N1CCN(c2ccc(OCC3COC(Cn4ccnc4)(c4ccc(Cl)cc4Cl)O3)cc2)CC1 (stereo not shown) [Ketoconazole, ketoconazole, reference compound] | – | – | – | – | – | – | – | – | – | – | – | – | – | – | – | – | – | – | – | – | MIC ([12]; read-out: Ketoconazole MIC): 1 µg/mL (≈ 1.88 µM); MIC ([13]; read-out: Ketoconazole MIC): 2 µg/mL (≈ 3.76 µM); MIC (C. krusei YEM-71; read-out: Ketoconazole MIC): 2 µg/mL
4 | CCC(C)n1ncn(-c2ccc(N3CCN(c4ccc(OCC5COC(Cn6cncn6)(c6ccc(Cl)cc6Cl)O5)cc4)CC3)cc2)c1=O (stereo not shown) [Itraconazole, itraconazole, reference compound] | – | – | – | – | – | – | – | – | – | – | – | – | – | – | – | – | – | – | – | – | MIC ([12]; read-out: Itraconazole MIC): 0.5 µg/mL (≈ 0.709 µM); MIC ([13]; read-out: Itraconazole MIC): 128 µg/mL (≈ 181 µM); MIC (C. krusei YEM-71; read-out: Itraconazole MIC): 0.5 µg/mL
5 | CC[C@H](C)[C@H]1O[C@]2(CC[C@@H]1C)C[C@@H]1C[C@@H](C/C=C(\C)[C@@H](O[C@H]3C[C@H](OC)[C@@H](O[C@H]4C[C@H](OC)[C@@H](O)[C@H](C)O4)[C@H](C)O3)[C@@H](C)/C=C/C=C3\CO[C@@H]4[C@H](O)C(C)=C[C@@H](C(=O)O1)[C@]34O)O2 [Compound 1, Ivermectin B1a] | > 64 µg/mL | > 64 µg/mL | > 64 µg/mL | > 64 µg/mL | – | > 64 µg/mL | > 64 µg/mL | > 64 µg/mL | – | > 64 µg/mL | > 64 µg/mL | > 64 µg/mL | > 64 µg/mL | 64 µg/mL | > 64 µg/mL | >64 | >64 | >64 | >64 | >64 | MIC of compound in the presence of fluconazole (+) (YEM 53 C. krusei): 8 µg/mL; MIC of compound in the presence of fluconazole (+) (YEM 51 C. glabrata wt): 64 µg/mL; MIC of compound in the presence of fluconazole (+) (YEM 30 C. albicans wt): ≦0.03; FEPI MIC with fluconazole, 60% Inh (Aspergillus fumigatus): >64; FEPI MIC with fluconazole, 80% Inh (Aspergillus fumigatus): >64
6 | 8-Methyl-8-deoxymilbemycin β1 [Compound 24] | 64 µg/mL | > 64 µg/mL | ≦0.03 | > 64 µg/mL | > 64 µg/mL | > 64 µg/mL | 1 µg/mL | > 64 µg/mL | 0.125 µg/mL | > 64 µg/mL | > 64 µg/mL | > 64 µg/mL | > 64 µg/mL | 64 µg/mL | > 64 µg/mL | 64 | 64 | ≦0.063 | ≦0.063 | 64 | MIC of compound in the presence of fluconazole (+) (YEM 30 C. albicans wt; [16]): ≦0.03; FEPI MIC with fluconazole, 60% Inh (Aspergillus fumigatus; [17]): 64; FEPI MIC with fluconazole, 80% Inh (Aspergillus fumigatus; [18]): 64
